From PubChem BioAssay (NCI)
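Cells were grown in 96-well plates and exposed to each compound for 48 hours at five concentrations; endpoints were interpolated linearly between bracketing concentrations, or set to the highest concentration if not reached. The concentration for 50% growth inhibition is given as GI50. TGI: total growth inhibition.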

Key:
Experiment in all cases: growth of human tumour cells (NCI), 48 h
SF-539 CNS = system: SF-539 CNS
SK-MEL-2 melanoma = system: SK-MEL-2 melanoma
NCI-H460 lung = system: NCI-H460 lung
SF-268 CNS = system: SF-268 CNS
RPMI-8226 leukemia = system: RPMI-8226 leukemia
SN12C renal = system: SN12C renal
NCI-H226 lung = system: NCI-H226 lung
HOP-62 NSCLC = system: HOP-62 NSCLC
KM12 colon = system: KM12 colon
CCRF-CEM leukemia = system: CCRF-CEM leukemia

| SMILES | GI50 (SF-539 CNS) | TGI (SF-539 CNS) | GI50 (SK-MEL-2 melanoma) | TGI (SK-MEL-2 melanoma) | GI50 (NCI-H460 lung) | TGI (NCI-H460 lung) | GI50 (SF-268 CNS) | TGI (SF-268 CNS) | GI50 (RPMI-8226 leukemia) | TGI (RPMI-8226 leukemia) | GI50 (SN12C renal) | TGI (SN12C renal) | GI50 (NCI-H226 lung) | TGI (NCI-H226 lung) | GI50 (HOP-62 NSCLC) | TGI (HOP-62 NSCLC) | GI50 (KM12 colon) | TGI (KM12 colon) | GI50 (CCRF-CEM leukemia) | TGI (CCRF-CEM leukemia) |
| --- | --- | --- | --- | --- | --- | --- | --- | --- | --- | --- | --- | --- | --- | --- | --- | --- | --- | --- | --- | --- |
| O=C(Nc1ccc(Cl)cc1F)c1cc(F)ccc1O | 0.845 µM | 7.58 µM | 0.519 µM | 3.12 µM | 0.647 µM | 13.5 µM | 0.854 µM | 12.1 µM | 0.449 µM | 3.99 µM | 0.643 µM | 5.64 µM | 1.02 µM | 5.49 µM | 1.5 µM | 19.8 µM | 2.03 µM | 5.56 µM | 3.16 µM | > 100 µM |
| [C-]#[O+].[C-]#[O+].[Ir].[O-]c1ccc2ccccc2c1N=Nc1ccccc1 |  | 50.4 µM |  | 49.1 µM |  | > 70.6 µM | 22.7 µM | 61.5 µM |  | 45.2 µM |  | 23.9 µM |  | 31.9 µM |  | > 100 µM | 13 µM | > 44.1 µM |  | 7.42 µM |
| O=C1c2ccc3c4c(ccc(c24)C(=O)N1CCCNCc1ccccc1)C(=O)N(CCCNCc1ccccc1)C3=O | 0.194 µM | 0.45 µM | 0.178 µM | 0.363 µM | 0.146 µM | 0.579 µM | 0.173 µM | 0.531 µM | 0.265 µM | 0.939 µM | 0.145 µM | 0.308 µM | 0.694 µM | 2.25 µM | 0.232 µM | 0.772 µM | 0.108 µM | 0.288 µM | 0.17 µM | 4.73 µM |
| CCOC(=O)C12CCSC1C1(C#N)C(C#N)=CC2(N=P(c2ccccc2)(c2ccccc2)c2ccccc2)n2c(=O)n(-c3ccccc3)c(=O)n21 (stereo unspecified) |  | > 100 µM |  | > 100 µM |  | > 100 µM |  | > 100 µM |  | 73.4 µM |  | > 100 µM |  | > 100 µM |  | > 100 µM |  | > 100 µM |  | > 100 µM |
| Cc1ccc(/C=N/NS(=O)(=O)c2ccccc2)cc1 |  | > 100 µM |  | > 100 µM |  | > 100 µM |  | > 100 µM |  | > 100 µM |  | > 100 µM |  | > 100 µM |  | > 100 µM |  | > 100 µM |  | > 100 µM |
| CNS(=O)(=O)c1ccccc1C(=N)c1ccccc1 |  | > 100 µM |  | > 100 µM |  | > 100 µM |  | > 100 µM |  | > 100 µM |  | > 100 µM |  | > 100 µM |  | > 100 µM |  | > 100 µM |  | > 100 µM |
| C/C(=C1/N=C(c2ccccc2)OC1=O)c1ccc(C)cc1 |  | > 100 µM |  | > 100 µM |  | > 100 µM |  | > 100 µM |  | > 100 µM |  | > 100 µM |  | > 100 µM |  | > 100 µM |  | > 100 µM |  | > 100 µM |
| C[C@@H]1[C@H]2[C@H](C=C3[C@@H]4CC[C@H]5Cc6nc7c(nc6C[C@]5(C)[C@H]4C[C@@H](O)[C@@]32C)C[C@@H]2CC[C@H]3C4=C[C@@H]5O[C@@]6(CC[C@](C)(CO)O6)[C@@H](C)[C@@]5(O)[C@@]4(C)[C@H](O)C[C@@H]3[C@@]2(C)C7)O[C@]12CCC(C)(C)O2 | 0.114 µM | 4.08 µM | 0.9 µM | 18 µM | 0.466 µM | 4.95 µM | 0.756 µM | 31.6 µM | 0.0819 µM | 0.723 µM | 11.6 µM | > 70.3 µM | 3.33 µM | 35.6 µM | 0.861 µM | 5.73 µM | 0.73 µM | 16.2 µM | 0.317 µM |  |
